From US20240059682A1, “THYROID HORMONE RECEPTOR BETA AGONIST COMPOUNDS” (Terns Pharmaceuticals, Inc., priority 2021, published 2024)
Like-named read-outs stand apart in the source and are kept apart here. Blank lines part the entries; values can stand above or below the compound they belong to.

Assays:
[1] = target: THR-β/RXR-α (Homo sapiens (Human), UniProt P10828); experiment: THR/RXR heterodimer assay (THR-β/RXR-α); format: biochemical; details: RXR heterodimer assay; for THRß-Selectivity: normalized to T3 activity
[2] = target: TR beta-LBD (Homo sapiens (Human), UniProt P10828); details: TR-FRET; derived from T3-selectivity normalized data
[3] = target: THR-α/RXR-α (Homo sapiens (Human), UniProt P10827); experiment: THR/RXR heterodimer assay (THR-α/RXR-α); format: biochemical; details: RXR heterodimer assay; read-out: EC50 THRα-het
[4] = Pharmacokinetics study in rats; format: in vivo, male Sprague-Dawley (SD) rats; details: male SD rats; for AUC(0-inf) / half-life / clearance / Vd / bioavailability / AUC(0-t) / Cmax: Sprague-Dawley, rat, plasma; for clearance: mean±SD, read-out: plasma clearance (CL); for Vd: read-out: volume of distribution (Vdss)
Method: Examples 12 and 14 were administered via a 30-minute intravenous (IV) infusion at approximately 1 mg/kg and orally at approximately 3 mg/kg to male Sprague-Dawley (SD) rats. The concentrations of Examples 12 and 14 in rat plasma was determined with an LC-MS/MS method.

[5] = Tissue distribution in rats; format: in vivo, male Sprague-Dawley (SD) rats; details: 2 hours post-dose, male SD rats; for Kp at 2 h / concentration at 2 h: Sprague-Dawley, rat
Method: Examples 12 and 14 were administered via a 30-minute intravenous (IV) infusion at approximately 2 mg/kg to jugular vein cannulated male Sprague-Dawley (SD) rats. All animals were euthanized by CO2 inhalation at 2 hours post-dose. The concentrations of Examples 12 and 14 in rat plasma and liver, heart and kidney tissues were determined with an LC-MS/MS method.

THR-β/RXR-α, sequence (P10828 202-461): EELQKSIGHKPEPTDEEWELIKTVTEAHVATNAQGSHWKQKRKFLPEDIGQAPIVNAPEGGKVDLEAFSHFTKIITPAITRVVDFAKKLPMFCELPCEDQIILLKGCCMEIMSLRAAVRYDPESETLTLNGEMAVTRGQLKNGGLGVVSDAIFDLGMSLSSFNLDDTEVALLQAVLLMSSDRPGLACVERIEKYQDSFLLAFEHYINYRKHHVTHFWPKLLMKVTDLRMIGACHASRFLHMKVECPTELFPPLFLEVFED
THR-β/RXR-α, sequence (P19793 225-462 partner): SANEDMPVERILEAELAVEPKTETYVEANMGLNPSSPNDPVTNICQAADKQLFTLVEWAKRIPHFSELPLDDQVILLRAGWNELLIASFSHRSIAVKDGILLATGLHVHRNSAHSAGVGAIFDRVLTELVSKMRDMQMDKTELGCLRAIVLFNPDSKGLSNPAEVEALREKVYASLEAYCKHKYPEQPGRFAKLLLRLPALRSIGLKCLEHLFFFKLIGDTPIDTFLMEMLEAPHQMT
THR-β/RXR-α, sequence (Q15596 679-703 partner): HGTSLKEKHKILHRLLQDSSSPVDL
THR-α/RXR-α, sequence (P10827 other isoform, or with tags, fused parts or gaps): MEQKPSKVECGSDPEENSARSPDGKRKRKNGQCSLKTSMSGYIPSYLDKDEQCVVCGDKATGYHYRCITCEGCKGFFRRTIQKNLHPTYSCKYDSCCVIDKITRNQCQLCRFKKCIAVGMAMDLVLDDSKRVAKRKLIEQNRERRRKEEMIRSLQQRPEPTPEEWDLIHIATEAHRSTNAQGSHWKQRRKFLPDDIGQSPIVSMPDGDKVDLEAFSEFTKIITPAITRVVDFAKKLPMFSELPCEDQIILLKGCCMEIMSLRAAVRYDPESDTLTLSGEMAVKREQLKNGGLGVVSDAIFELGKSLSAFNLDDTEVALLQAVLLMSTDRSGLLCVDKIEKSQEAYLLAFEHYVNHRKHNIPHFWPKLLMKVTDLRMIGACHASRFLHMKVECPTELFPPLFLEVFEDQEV
THR-α/RXR-α, sequence (P19793 225-462 partner): as the sequence (P19793 225-462 partner) above
TR beta-LBD, sequence (P10828 whole entry, looked up, the tested form may be a part): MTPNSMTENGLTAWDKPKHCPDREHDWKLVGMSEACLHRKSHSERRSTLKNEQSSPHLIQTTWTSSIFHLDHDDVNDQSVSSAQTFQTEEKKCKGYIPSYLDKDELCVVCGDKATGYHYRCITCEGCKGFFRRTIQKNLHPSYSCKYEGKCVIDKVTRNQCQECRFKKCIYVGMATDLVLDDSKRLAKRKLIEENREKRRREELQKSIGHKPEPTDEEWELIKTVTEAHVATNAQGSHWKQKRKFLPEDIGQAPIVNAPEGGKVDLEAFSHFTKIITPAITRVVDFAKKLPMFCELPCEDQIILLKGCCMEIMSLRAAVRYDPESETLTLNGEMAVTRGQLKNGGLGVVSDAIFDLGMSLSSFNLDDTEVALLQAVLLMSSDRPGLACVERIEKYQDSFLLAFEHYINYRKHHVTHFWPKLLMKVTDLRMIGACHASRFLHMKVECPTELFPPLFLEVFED

Structure (SMILES): N#Cc1nn(-c2cc(Cl)c(Oc3ccc4[nH]c(=O)n(C5(C(F)F)CC5)c4c3)c(Cl)c2)c(=O)[nH]c1=O [Example 18, 2-(3,5-dichloro-4-((3-(1-(difluoromethyl)cyclopropyl)-2-oxo-2,3-dihydro-1H-benzo[d]imidazol-5-yl)oxy)phenyl)-3,5-dioxo-2,3,4,5-tetrahydro-1,2,4-triazine-6-carbonitrile]
- THRß-Selectivity [1]: 8.2

Structure (SMILES): COc1nc2ccc(Oc3c(Cl)cc(-n4nc(C#N)c(=O)[nH]c4=O)cc3Cl)cc2n1C1CC1 [Example 2, 2-(3,5-dichloro-4-((1-cyclopropyl-2-methoxy-1H-benzo[d]imidazol-6-yl)oxy)phenyl)-3,5-dioxo-2,3,4,5-tetrahydro-1,2,4-triazine-6-carbonitrile]
- THRß-Selectivity [1]: 16.9

Structure (SMILES): COc1nc2ccc(Oc3c(Cl)cc(-n4nc(C#N)c(=O)[nH]c4=O)cc3Cl)cc2n1C(C)(C)C [Example 15, 2-(4-((1-(tert-butyl)-2-methoxy-1H-benzo[d]imidazol-6-yl)oxy)-3,5-dichlorophenyl)-3,5-dioxo-2,3,4,5-tetrahydro-1,2,4-triazine-6-carbonitrile]
- THRß-Selectivity [1]: 10.3

Structure (SMILES): Cn1c(=O)[nH]c2ccc(Oc3c(Cl)cc(NC(=O)c4noc(=O)[nH]4)cc3Cl)cc21 [Example 19, N-(3,5-dichloro-4-((3-methyl-2-oxo-2,3-dihydro-1H-benzo[d]imidazol-5-yl)oxy)phenyl)-5-oxo-4,5-dihydro-1,2,4-oxadiazole-3-carboxamide]
- THRß-Selectivity [1]: 5.3
- THRß-Selectivity [2]: 14.1

- THRß-Selectivity [1]: 6.7
- EC50 ([1]; read-out: EC50 THRß-het): 480 nM
- EC50 [3]: 3230 nM
Structure (SMILES): COc1nc2ccc(Oc3c(Cl)cc(NC(=O)c4noc(=O)[nH]4)cc3Cl)cc2n1C1(C(F)(F)F)CC1 [Example 24]

Structure (SMILES): N#Cc1nn(-c2cc(Cl)c(Oc3ccc4[nH]c(=O)n(C5CC5)c4c3)c(Cl)c2)c(=O)[nH]c1=O [Example 8, 2-(3,5-dichloro-4-((3-cyclopropyl-2-oxo-2,3-dihydro-1H-benzo[d]imidazol-5-yl)oxy)phenyl)-3,5-dioxo-2,3,4,5-tetrahydro-1,2,4-triazine-6-carbonitrile]
- THRß-Selectivity [1]: 7.2

Structure (SMILES): COc1nc2ccc(Oc3c(Cl)cc(-n4nc(C#N)c(=O)[nH]c4=O)cc3Cl)cc2n1C1(C)CC1 [Example 12, 2-(3,5-dichloro-4-((2-methoxy-1-(1-methylcyclopropyl)-1H-benzo[d]imidazol-6-yl)oxy)phenyl)-3,5-dioxo-2,3,4,5-tetrahydro-1,2,4-triazine-6-carbonitrile]
- THRß-Selectivity [1]: 18.7
- AUC(0-inf) ([4]; IV infusion 1.09 mg/kg): 3780 ± 704 ng·h/mL
- half-life ([4]; IV infusion 1.09 mg/kg): 2.67 ± 0.53 h
- clearance ([4]; IV infusion 1.09 mg/kg): 4.51 ± 0.883 mL/min/kg
- Vd ([4]; IV infusion 1.09 mg/kg): 0.638 ± 0.218 L/kg
- bioavailability ([4]; oral 3.0 mg/kg vs IV 1.09 mg/kg): 95.2%
- AUC(0-inf) ([4]; oral 3.0 mg/kg): 10800 ± 5630 ng·h/mL
- AUC(0-t) ([4]; oral 3.0 mg/kg): 10800 ± 5630 ng·h/mL
- Cmax ([4]; oral 3.0 mg/kg): 2020 ± 793 ng/mL
- time post-dose at which Cmax was reached ([4]; oral 3.0 mg/kg): 3.33 ± 1.15 h
- Kp at 2 h ([5]; heart/plasma, IV infusion 2.0 mg/kg, read-out: tissue/plasma ratio heart/plasma): 1.65 ± 2.33
- concentration at 2 h ([5]; heart, IV infusion 2.0 mg/kg, read-out: tissue concentration in heart): 995 ± 1430 ng/g
- Kp at 2 h ([5]; kidney/plasma, IV infusion 2.0 mg/kg, read-out: tissue/plasma ratio kidney/plasma): 1.01 ± 0.212
- concentration at 2 h ([5]; kidney, IV infusion 2.0 mg/kg, read-out: tissue concentration in kidney): 558 ± 103 ng/g
- Kp at 2 h ([5]; liver/plasma, IV infusion 2.0 mg/kg, read-out: tissue/plasma ratio liver/plasma): 5.62 ± 1.09
- concentration at 2 h ([5]; liver, IV infusion 2.0 mg/kg, mean±SD, read-out: tissue concentration in liver): 3040 ± 350 ng/g
- concentration at 2 h ([5]; plasma, IV infusion 2.0 mg/kg, read-out: plasma concentration): 569 ± 145 ng/mL

Structure (SMILES): CC(C)n1c(=O)[nH]c2ccc(Oc3c(Cl)cc(-n4nc(C#N)c(=O)[nH]c4=O)cc3Cl)cc21 [Example 5, 2-(3,5-dichloro-4-((3-isopropyl-2-oxo-2,3-dihydro-1H-benzo[d]imidazol-5-yl)oxy)phenyl)-3,5-dioxo-2,3,4,5-tetrahydro-1,2,4-triazine-6-carbonitrile]
- THRß-Selectivity [1]: 5.8

Structure (SMILES): COc1nc2ccc(Oc3c(Cl)cc(NC(=O)c4noc(=O)[nH]4)cc3Cl)cc2n1C1(C)CC1 [Example 11, N-(3,5-dichloro-4-((2-methoxy-1-(1-methylcyclopropyl)-1H-benzo[d]imidazol-6-yl)oxy)phenyl)-5-oxo-4,5-dihydro-1,2,4-oxadiazole-3-carboxamide]
- THRß-Selectivity [1]: 17.7

Structure (SMILES): COc1nc2ccc(Oc3c(Cl)cc(NC(=O)c4noc(=O)[nH]4)cc3Cl)cc2n1C1CC1 [Example 7, N-(3,5-dichloro-4-((1-cyclopropyl-2-methoxy-1H-benzo[d]imidazol-6-yl)oxy)phenyl)-5-oxo-4,5-dihydro-1,2,4-oxadiazole-3-carboxamide]
- THRß-Selectivity [1]: 21.2

Structure (SMILES): O=C(Nc1cc(Cl)c(Oc2ccc3[nH]c(=O)n(C4(C(F)F)CC4)c3c2)c(Cl)c1)c1noc(=O)[nH]1 [Example 17, N-(3,5-dichloro-4-((3-(1-(difluoromethyl)cyclopropyl)-2-oxo-2,3-dihydro-1H-benzo[d]imidazol-5-yl)oxy)phenyl)-5-oxo-4,5-dihydro-1,2,4-oxadiazole-3-carboxamide]
- THRß-Selectivity [1]: 10.1

Structure (SMILES): COc1nc2ccc(Oc3c(Cl)cc(NC(=O)c4noc(=O)[nH]4)cc3Cl)cc2n1C(C)C [Example 6, N-(3,5-dichloro-4-((1-isopropyl-2-methoxy-1H-benzo[d]imidazol-6-yl)oxy)phenyl)-5-oxo-4,5-dihydro-1,2,4-oxadiazole-3-carboxamide]
- THRß-Selectivity [1]: 16.9

Structure (SMILES): O=C(Nc1cc(Cl)c(Oc2ccc3[nH]c(=O)n(C4CC4)c3c2)c(Cl)c1)c1noc(=O)[nH]1 [Example 1, N-(3,5-dichloro-4-((3-cyclopropyl-2-oxo-2,3-dihydro-1H-benzo[d]imidazol-5-yl)oxy)phenyl)-5-oxo-4,5-dihydro-1,2,4-oxadiazole-3-carboxamide]
- THRß-Selectivity [1]: 5.1

Structure (SMILES): COc1nc2ccc(Oc3c(Cl)cc(NC(=O)c4noc(=O)[nH]4)cc3Cl)cc2n1C [Example 3, N-(3,5-dichloro-4-((2-methoxy-1-methyl-1H-benzo[d]imidazol-6-yl)oxy)phenyl)-5-oxo-4,5-dihydro-1,2,4-oxadiazole-3-carboxamide]
- THRß-Selectivity [1]: 9.7

Structure (SMILES): CC(C)(C)n1c(=O)[nH]c2ccc(Oc3c(Cl)cc(NC(=O)c4noc(=O)[nH]4)cc3Cl)cc21 [Example 10, N-(4-((3-(tert-butyl)-2-oxo-2,3-dihydro-1H-benzo[d]imidazol-5-yl)oxy)-3,5-dichlorophenyl)-5-oxo-4,5-dihydro-1,2,4-oxadiazole-3-carboxamide]
- THRß-Selectivity [1]: 7.7

Structure (SMILES): CC1(n2c(=O)[nH]c3ccc(Oc4c(Cl)cc(NC(=O)c5noc(=O)[nH]5)cc4Cl)cc32)CC1 [Example 13, N-(3,5-dichloro-4-((3-(1-methylcyclopropyl)-2-oxo-2,3-dihydro-1H-benzo[d]imidazol-5-yl)oxy)phenyl)-5-oxo-4,5-dihydro-1,2,4-oxadiazole-3-carboxamide]
- THRß-Selectivity [1]: 11.0

Structure (SMILES): CC1(n2c(=O)[nH]c3ccc(Oc4c(Cl)cc(-n5nc(C#N)c(=O)[nH]c5=O)cc4Cl)cc32)CC1 [Example 14, 2-(3,5-dichloro-4-((3-(1-methylcyclopropyl)-2-oxo-2,3-dihydro-1H-benzo[d]imidazol-5-yl)oxy)phenyl)-3,5-dioxo-2,3,4,5-tetrahydro-1,2,4-triazine-6-carbonitrile]
- THRß-Selectivity [1]: 12.0
- AUC(0-inf) ([4]; IV infusion 1.09 mg/kg): 550 ± 19.6 ng·h/mL
- half-life ([4]; IV infusion 1.09 mg/kg): 1.51 ± 0.54 h
- clearance ([4]; IV infusion 1.09 mg/kg): 30.3 ± 1.07 mL/min/kg
- Vd ([4]; IV infusion 1.09 mg/kg): 1.28 ± 0.387 L/kg
- bioavailability ([4]; oral 3.18 mg/kg vs IV 1.09 mg/kg): 11.5%
- AUC(0-inf) ([4]; oral 3.18 mg/kg): 190 ± 28.7 ng·h/mL
- AUC(0-t) ([4]; oral 3.18 mg/kg): 178 ± 25.5 ng·h/mL
- Cmax ([4]; oral 3.18 mg/kg): 31 ± 5.92 ng/mL
- time post-dose at which Cmax was reached ([4]; oral 3.18 mg/kg): 4.0 ± 2.0 h
- tissue concentration in heart ([5]; IV infusion 2.16 mg/kg): below the limit of detection
- Kp at 2 h ([5]; kidney/plasma, IV infusion 2.16 mg/kg, read-out: tissue/plasma ratio kidney/plasma): 6.25 ± 2.13
- concentration at 2 h ([5]; kidney, IV infusion 2.16 mg/kg, read-out: tissue concentration in kidney): 94 ± 23.5 ng/g
- Kp at 2 h ([5]; liver/plasma, IV infusion 2.16 mg/kg, read-out: tissue/plasma ratio liver/plasma): 29 ± 24.9
- concentration at 2 h ([5]; liver, IV infusion 2.16 mg/kg, read-out: tissue concentration in liver): 413 ± 303 ng/g
- concentration at 2 h ([5]; plasma, IV infusion 2.16 mg/kg, read-out: plasma concentration): 15.5 ± 3.7 ng/mL

Structure (SMILES): CC(C)(C)n1c(=O)[nH]c2ccc(Oc3c(Cl)cc(-n4nc(C#N)c(=O)[nH]c4=O)cc3Cl)cc21 [Example 16, 2-(4-((3-(tert-butyl)-2-oxo-2,3-dihydro-1H-benzo[d]imidazol-5-yl)oxy)-3,5-dichlorophenyl)-3,5-dioxo-2,3,4,5-tetrahydro-1,2,4-triazine-6-carbonitrile]
- THRß-Selectivity [1]: 9.8
